These results are taken from ChEMBL document CHEMBL5465560, “Selectivity Literature for EUbOPEN Chemogenomic Library” (2024).

Assay [1] concerns the target Receptor-interacting serine/threonine-protein kinase 2 (Homo sapiens, UniProt O43353). As to conditions: at 10 µM.
Assay [2] concerns the target Serine/threonine-protein kinase MRCK gamma (Homo sapiens) (UniProt Q6DT37). Conditions: at 10 µM.
In assay [3] the target is Death-associated protein kinase 1 (Homo sapiens, UniProt P53355). Description: Selectivity interaction (KinomeScan (DiscoverX)) EUB0000092b DAPK1. As to conditions: at 10 µM.
Sequence of Death-associated protein kinase 1 (P53355 whole entry, looked up): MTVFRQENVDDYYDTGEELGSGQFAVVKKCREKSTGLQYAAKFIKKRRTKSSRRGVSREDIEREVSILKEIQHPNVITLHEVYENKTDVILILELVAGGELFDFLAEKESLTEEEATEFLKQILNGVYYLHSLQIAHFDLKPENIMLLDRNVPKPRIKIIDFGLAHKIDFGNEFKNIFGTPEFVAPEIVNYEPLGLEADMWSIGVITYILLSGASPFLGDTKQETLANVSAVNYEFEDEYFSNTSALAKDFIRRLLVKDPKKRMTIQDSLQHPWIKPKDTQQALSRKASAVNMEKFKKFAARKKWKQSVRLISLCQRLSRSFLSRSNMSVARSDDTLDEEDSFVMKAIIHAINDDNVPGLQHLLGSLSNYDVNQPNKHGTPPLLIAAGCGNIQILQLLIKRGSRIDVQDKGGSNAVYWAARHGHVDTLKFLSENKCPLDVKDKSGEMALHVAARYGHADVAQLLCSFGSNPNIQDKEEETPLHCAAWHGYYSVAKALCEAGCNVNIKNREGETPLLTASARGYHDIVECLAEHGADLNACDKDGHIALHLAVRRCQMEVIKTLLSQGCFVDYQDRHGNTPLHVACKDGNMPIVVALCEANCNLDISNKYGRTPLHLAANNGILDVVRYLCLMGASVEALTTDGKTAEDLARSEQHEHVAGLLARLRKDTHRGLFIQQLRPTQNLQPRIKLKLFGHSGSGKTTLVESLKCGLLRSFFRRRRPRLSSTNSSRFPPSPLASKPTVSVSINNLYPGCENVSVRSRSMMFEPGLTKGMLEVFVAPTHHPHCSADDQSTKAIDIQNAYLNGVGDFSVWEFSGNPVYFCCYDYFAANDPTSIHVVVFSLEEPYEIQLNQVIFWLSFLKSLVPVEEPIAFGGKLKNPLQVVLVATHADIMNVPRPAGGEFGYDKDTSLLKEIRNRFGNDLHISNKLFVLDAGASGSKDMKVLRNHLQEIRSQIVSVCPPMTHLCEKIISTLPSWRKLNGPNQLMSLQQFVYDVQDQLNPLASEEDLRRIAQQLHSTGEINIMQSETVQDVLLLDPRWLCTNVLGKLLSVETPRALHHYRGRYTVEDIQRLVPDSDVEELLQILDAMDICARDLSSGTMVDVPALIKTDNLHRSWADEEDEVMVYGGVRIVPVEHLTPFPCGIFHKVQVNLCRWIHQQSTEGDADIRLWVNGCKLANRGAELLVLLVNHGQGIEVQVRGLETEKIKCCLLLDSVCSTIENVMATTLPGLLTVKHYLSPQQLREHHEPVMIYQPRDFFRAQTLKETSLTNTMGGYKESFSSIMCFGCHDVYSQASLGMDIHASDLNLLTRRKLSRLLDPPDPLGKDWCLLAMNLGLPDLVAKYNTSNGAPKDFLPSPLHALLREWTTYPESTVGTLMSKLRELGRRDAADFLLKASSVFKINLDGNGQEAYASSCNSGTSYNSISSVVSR
The target in assay [4] is T1, Atypical kinase COQ8B, mitochondrial (Homo sapiens) (UniProt Q96D53).
T1 sequence (whole entry): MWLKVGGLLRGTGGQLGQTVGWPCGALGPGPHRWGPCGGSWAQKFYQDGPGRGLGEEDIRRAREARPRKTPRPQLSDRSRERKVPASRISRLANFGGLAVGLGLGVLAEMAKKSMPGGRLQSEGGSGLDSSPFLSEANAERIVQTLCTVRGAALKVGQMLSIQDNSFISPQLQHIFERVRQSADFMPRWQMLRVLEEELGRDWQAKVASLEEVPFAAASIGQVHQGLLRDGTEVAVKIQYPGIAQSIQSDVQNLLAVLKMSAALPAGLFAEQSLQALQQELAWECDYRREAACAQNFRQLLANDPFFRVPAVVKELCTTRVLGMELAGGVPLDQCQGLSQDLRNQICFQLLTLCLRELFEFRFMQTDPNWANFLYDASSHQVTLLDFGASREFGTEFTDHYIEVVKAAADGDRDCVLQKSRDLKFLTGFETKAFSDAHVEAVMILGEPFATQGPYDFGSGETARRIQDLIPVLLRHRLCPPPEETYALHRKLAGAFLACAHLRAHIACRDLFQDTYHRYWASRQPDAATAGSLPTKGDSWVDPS
Description: Selectivity interaction (KinomeScan (DiscoverX)) EUB0000092b ADCK4. Conditions: at 10 µM.

In assay [5] the target is Activin receptor type-2A (Homo sapiens) (UniProt P27037). In words: Selectivity interaction (KinomeScan (DiscoverX)) EUB0000092b ACVR2A. Conditions: at 10 µM.
Sequence of Activin receptor type-2A (Homo sapiens) (P27037 whole entry): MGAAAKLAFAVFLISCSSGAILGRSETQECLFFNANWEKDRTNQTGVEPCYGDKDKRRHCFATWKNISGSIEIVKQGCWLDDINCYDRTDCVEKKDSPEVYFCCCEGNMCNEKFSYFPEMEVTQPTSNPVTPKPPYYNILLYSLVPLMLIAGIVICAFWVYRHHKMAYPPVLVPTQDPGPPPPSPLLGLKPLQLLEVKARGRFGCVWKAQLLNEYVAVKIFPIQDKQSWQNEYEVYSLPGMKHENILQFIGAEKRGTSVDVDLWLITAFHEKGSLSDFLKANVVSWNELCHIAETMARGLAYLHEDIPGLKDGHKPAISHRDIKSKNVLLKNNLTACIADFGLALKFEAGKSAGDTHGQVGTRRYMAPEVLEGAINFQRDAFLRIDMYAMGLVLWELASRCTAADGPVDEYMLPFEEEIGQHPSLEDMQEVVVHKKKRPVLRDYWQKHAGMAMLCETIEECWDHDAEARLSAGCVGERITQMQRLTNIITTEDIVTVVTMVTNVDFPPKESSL
The target of a further assay is Ephrin type-A receptor 4 (Homo sapiens, UniProt P54764). In words: Selectivity interaction (KinomeScan (DiscoverX)) EUB0001049a EPHA4. Conditions: at 1 µM.
In assay [6] the target is RAF proto-oncogene serine/threonine-protein kinase (Homo sapiens) (UniProt P04049). Description: Selectivity interaction (KinomeScan (DiscoverX)) EUB0000666a RAF1. Conditions: at 10 µM.
Sequence of RAF proto-oncogene serine/threonine-protein kinase (Homo sapiens) (P04049 whole entry): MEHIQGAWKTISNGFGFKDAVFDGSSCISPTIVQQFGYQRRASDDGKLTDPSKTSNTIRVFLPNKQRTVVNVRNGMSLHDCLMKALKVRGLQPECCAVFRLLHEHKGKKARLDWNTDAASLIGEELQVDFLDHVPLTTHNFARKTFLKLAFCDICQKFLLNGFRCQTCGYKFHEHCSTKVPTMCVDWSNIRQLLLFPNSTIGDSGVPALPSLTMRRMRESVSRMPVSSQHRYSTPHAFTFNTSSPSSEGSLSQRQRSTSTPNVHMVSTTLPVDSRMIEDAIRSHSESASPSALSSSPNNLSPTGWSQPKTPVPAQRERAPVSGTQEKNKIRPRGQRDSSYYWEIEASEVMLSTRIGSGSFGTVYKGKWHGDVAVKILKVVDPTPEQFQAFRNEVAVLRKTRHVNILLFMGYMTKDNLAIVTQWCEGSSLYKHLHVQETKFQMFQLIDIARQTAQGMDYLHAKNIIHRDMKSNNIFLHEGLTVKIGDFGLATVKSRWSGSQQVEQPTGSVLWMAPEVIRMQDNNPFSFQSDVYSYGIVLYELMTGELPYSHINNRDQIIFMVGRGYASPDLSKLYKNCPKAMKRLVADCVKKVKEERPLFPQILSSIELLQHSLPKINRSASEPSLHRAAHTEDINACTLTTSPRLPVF
Assay [7] has as its target T2, Serine/threonine-protein kinase 3 (Homo sapiens) (UniProt Q13188).
T2 sequence (whole entry): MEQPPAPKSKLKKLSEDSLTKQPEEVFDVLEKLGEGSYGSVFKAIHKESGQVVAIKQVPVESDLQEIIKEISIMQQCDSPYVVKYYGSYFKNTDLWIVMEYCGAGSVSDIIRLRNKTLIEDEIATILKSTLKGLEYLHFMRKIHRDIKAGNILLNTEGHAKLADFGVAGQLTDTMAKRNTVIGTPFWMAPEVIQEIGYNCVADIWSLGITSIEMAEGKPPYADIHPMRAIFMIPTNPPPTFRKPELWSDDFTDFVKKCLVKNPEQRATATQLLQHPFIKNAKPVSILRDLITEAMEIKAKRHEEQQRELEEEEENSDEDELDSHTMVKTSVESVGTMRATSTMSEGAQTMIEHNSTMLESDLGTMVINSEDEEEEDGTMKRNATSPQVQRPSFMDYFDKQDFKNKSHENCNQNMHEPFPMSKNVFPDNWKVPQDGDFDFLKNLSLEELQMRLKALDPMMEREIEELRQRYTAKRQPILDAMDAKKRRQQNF
Description: Selectivity interaction (SelectScreen profiling (Invitrogen)) EUB0000607a STK3. Conditions: at 2 µM.

Assay [8] deals with Myosin light chain kinase, smooth muscle (Homo sapiens, UniProt Q15746). Description: Selectivity interaction (Kinase panel (Invitrogen)) EUB0000639a MYLK. As to conditions: at 200 nM.
Assay [9] has as its target T3, Membrane-associated tyrosine- and threonine-specific cdc2-inhibitory kinase (Homo sapiens) (UniProt Q99640).
T3 sequence (whole entry): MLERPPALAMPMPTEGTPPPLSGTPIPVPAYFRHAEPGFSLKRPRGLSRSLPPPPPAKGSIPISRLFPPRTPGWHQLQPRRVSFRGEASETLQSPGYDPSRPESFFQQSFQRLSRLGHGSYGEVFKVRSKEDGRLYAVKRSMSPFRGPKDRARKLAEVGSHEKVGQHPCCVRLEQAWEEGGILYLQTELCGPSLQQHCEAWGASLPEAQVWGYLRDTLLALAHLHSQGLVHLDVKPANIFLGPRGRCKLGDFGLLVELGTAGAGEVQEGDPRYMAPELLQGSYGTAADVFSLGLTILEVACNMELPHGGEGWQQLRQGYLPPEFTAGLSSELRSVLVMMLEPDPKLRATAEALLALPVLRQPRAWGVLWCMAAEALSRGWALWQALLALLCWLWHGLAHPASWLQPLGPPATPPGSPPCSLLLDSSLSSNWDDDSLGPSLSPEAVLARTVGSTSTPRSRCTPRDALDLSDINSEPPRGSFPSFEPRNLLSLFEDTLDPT
Description: Selectivity interaction (KinomeScan (DiscoverX)) EUB0000229b PKMYT1. Conditions: at 10 µM.

Assay [10] concerns the target T4, Phosphorylase b kinase gamma catalytic chain, liver/testis isoform (Homo sapiens) (UniProt P15735).
T4 sequence (whole entry): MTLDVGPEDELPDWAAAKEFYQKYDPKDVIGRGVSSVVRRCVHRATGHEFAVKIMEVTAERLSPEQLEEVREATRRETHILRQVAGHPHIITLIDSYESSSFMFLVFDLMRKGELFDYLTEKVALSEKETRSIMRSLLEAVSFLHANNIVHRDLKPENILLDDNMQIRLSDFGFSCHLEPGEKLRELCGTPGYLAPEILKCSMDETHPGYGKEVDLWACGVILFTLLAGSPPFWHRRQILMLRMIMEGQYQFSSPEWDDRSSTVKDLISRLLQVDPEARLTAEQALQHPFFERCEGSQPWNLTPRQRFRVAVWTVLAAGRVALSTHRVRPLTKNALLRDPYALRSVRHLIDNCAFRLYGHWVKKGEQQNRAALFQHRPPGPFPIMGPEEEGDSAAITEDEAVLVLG
In words: Selectivity interaction (KinomeScan (DiscoverX)) EUB0000595a PHKG2. Conditions: at 10 µM.

For assay [11], the target named is STE20/SPS1-related proline-alanine-rich protein kinase (Homo sapiens) (UniProt Q9UEW8). Description: Selectivity interaction (KinomeScan (DiscoverX)) EUB0000595a STK39. Conditions: at 10 µM.
The target in assay [12] is Casein kinase I isoform alpha (Homo sapiens, UniProt P48729). In words: Selectivity interaction (ActivX KiNativ screen (ex vivo kinase selectivity in human PBMCs)) EUB0001619a CSNK1A1. As to conditions: PBMC, at 1 µM. The class given is cell-based.
Sequence of Casein kinase I isoform alpha (P48729 2-337 limits assumed): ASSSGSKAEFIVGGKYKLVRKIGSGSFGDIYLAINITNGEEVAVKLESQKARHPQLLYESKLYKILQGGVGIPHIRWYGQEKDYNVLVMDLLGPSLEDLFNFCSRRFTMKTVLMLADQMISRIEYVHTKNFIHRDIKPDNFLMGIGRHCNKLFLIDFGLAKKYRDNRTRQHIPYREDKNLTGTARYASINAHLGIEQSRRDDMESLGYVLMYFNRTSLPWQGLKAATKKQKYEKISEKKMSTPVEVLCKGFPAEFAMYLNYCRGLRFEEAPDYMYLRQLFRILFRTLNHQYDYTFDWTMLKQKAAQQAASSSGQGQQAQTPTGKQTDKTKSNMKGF

Sequence of Receptor-interacting serine/threonine-protein kinase 2 (O43353 whole entry): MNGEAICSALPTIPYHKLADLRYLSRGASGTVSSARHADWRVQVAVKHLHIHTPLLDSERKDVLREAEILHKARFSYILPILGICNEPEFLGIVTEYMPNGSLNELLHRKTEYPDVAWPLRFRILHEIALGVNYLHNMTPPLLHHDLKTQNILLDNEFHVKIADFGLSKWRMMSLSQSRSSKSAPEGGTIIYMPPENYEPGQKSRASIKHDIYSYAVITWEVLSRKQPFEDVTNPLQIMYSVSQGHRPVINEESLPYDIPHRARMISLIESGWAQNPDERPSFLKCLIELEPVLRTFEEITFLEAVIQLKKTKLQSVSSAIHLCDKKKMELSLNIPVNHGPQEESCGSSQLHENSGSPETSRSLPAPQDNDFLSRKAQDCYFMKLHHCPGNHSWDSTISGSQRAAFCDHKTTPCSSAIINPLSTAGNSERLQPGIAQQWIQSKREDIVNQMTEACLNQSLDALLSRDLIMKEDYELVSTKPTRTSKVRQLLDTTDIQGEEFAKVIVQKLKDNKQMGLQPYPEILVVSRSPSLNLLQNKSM
Sequence of Serine/threonine-protein kinase MRCK gamma (Homo sapiens) (Q6DT37 whole entry): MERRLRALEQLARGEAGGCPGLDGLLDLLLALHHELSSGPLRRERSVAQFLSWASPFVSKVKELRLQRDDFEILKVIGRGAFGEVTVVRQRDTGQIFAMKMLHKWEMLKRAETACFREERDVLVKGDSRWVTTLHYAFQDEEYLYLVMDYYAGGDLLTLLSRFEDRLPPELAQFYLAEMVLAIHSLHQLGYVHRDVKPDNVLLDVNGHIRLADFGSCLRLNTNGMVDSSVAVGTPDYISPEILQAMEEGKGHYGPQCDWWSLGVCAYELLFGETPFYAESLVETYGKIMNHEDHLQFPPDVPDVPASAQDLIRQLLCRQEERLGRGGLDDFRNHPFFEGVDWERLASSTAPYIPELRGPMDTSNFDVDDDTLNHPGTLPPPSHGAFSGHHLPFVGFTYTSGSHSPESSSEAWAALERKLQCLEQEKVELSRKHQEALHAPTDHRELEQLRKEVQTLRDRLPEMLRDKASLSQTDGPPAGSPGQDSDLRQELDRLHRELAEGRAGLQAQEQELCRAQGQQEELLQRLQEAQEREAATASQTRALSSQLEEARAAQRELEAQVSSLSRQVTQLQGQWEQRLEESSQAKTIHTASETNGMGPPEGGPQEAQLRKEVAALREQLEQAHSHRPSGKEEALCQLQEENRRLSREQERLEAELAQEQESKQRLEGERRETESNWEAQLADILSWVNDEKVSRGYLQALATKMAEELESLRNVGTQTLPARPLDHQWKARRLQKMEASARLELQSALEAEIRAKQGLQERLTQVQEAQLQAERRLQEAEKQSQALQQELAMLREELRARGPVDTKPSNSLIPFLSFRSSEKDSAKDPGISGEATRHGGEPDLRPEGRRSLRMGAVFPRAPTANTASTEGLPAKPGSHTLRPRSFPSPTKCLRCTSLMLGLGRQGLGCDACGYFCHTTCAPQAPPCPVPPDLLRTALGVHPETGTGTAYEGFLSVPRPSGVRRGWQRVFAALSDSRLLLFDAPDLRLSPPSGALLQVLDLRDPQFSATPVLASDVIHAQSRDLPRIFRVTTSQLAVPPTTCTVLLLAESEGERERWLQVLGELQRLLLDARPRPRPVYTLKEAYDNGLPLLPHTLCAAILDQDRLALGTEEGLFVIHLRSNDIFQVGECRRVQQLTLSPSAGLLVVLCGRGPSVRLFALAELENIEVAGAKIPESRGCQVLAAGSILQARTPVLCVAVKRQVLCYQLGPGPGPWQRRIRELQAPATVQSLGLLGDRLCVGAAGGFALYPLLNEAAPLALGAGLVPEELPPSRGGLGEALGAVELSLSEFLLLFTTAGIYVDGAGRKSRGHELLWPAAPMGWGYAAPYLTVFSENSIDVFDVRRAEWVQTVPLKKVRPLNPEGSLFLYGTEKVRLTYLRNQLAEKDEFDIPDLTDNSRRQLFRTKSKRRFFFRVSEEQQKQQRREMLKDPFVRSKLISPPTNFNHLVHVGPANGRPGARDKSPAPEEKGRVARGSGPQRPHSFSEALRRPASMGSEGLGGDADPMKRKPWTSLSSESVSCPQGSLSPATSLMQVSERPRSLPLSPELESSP

For `CCN(CC)CCCCNc1ncc2cc(-c3cc(OC)cc(OC)c3)c(NC(=O)NC(C)(C)C)nc2n1`, the % of control in assay [1] and in assay [2] was 100% in each case. On to `CCC(=O)N1CCN(c2ccc(-n3c(=O)ccc4cnc5ccc(-c6cnc7ccccc7c6)cc5c43)cc2C(F)(F)F)CC1`, for which the results for the % of control in assay [3], in [4] and in assay [5] were 96%, 15% and 47%, respectively. Take `COc1cc(Nc2nc(C)cc(-c3cnn4nc(OC)ccc34)n2)cc(C(F)(F)F)c1`: at Ephrin type-A receptor 4, the % of control amounted to 100%. `O=C(NOC[C@H](O)CO)c1ccc(F)c(F)c1Nc1ccc(I)cc1F` displayed a % of control in assay [6] of 99%. Consider `CNC(=O)Nc1ccc(-c2nc(N3CC4CCC(C3)O4)c3cnn(C4CCC5(CC4)OCCO5)c3n2)cc1`, for which the % of inhibition in [7] was determined as 0%. For the compound `CC[C@@H]1[C@H](F)C(=O)N[C@@H]1COc1nccc2cc(C(N)=O)c(OC)cc12` [ZIMLOVISERTIB], the % of inhibition in assay [8] was found to be 1%. As to `COc1cc(N(C)c2ccnc3ccc(C(F)(F)F)cc23)cc(OC)c1OC`, the % binding in assay [9] stood at 94%. For the compound `COCC(=O)NC/C=C/c1ccc2ncnc(Nc3ccc(Oc4ccc(C)nc4)c(C)c3)c2c1` [CP-724714], the results for the % of control in [10] and in assay [11] were 86% and 100%, respectively. As to `N#Cc1cccc(-c2c[nH]c3ncnc(N4CCOCC4)c23)c1`, the % of inhibition in [12] was -7%.
